# Reference: ChEMBL document CHEMBL3227984, “5-Substituted uracil arabinonucleosides as potential antiviral agents” (J Med Chem, 1979)
# System: Vaccinia virus
# Assay: Antiviral activity against Vaccinia virus infected in primary rabbit kidney cells assessed as inhibition of virus-induced cytopathogenicity
# Assay type: functional, Orthopoxvirus vaccinia
row,SMILES,ID50
1,O=c1ccn([C@@H]2O[C@H](CO)[C@@H](O)[C@@H]2O)c(=O)[nH]1 [ARAURIDINE],8.2 ×10⁻⁴ M
2,N#Cc1cn([C@@H]2O[C@H](CO)[C@@H](O)[C@@H]2O)c(=O)[nH]c1=O,>3.7 ×10⁻⁴ M
3,O=c1[nH]c(=O)n([C@@H]2O[C@H](CO)[C@@H](O)[C@@H]2O)cc1[N+](=O)[O-],>6.9 ×10⁻⁴ M
4,O=c1[nH]c(=O)n([C@@H]2O[C@H](CO)[C@@H](O)[C@@H]2O)cc1O,>7.7 ×10⁻⁴ M
5,Cc1cn([C@@H]2O[C@H](CO)[C@@H](O)[C@@H]2O)c(=O)[nH]c1=O,3.9 ×10⁻⁶ M
